Data on 8 compounds can be found in PubChem BioAssay (NCI).

The structures appear in SMILES notation.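 Exposure lasted 48 hours, with cells grown in 96-well plates and compounds tested at five concentrations. GI50 = concentration required for 50% inhibition of growth. TGI: concentration producing complete growth inhibition.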

Test in all cases: NCI tumour cell line growth inhibition, 48 h
Assay [1] concerns SF-539 CNS.
For assay [2], the system named is OVCAR-8 ovarian.
The subject of assay [3] is DU-145 prostate.
In assay [4] the test system is SW-620 colon.
The test system of assay [5] is BT-549 breast.
Assay [6] concerns NCI-H226 lung.
Assay [7] relates to CAKI-1 renal.
The test system of assay [8] is HT29 colon.
The test system of assay [9] is SF-268 CNS.
The test system of assay [10] is MOLT-4 leukemia.

Regarding `CC(C)C[C@H](NC(=O)[C@@H](Cc1ccccc1)n1ccc(Nc2ccccc2)cc1=O)B(O)O`, the GI50 in [1] is 0.174 µM; in assay [2] it was 1.88 µM; in assay [3], 0.783 µM; in assay [4] it was 0.32 µM; in assay [5], 0.289 µM; in [6] it was 0.164 µM. In addition, the GI50 in assay [7] was 0.403 µM; in [8] it was 0.342 µM; in [9], 0.385 µM; in [10], 0.247 µM. Further, the TGI worked out at 0.484 µM in assay [1]; 74.6 µM in [2]; 16.7 µM in assay [3]; 14.4 µM in assay [4]; 2.35 µM in assay [5]; 0.348 µM in [6]. In addition, the TGI in [7] is 5.45 µM; in [8], 15.5 µM; in assay [9], 2.31 µM; in [10], greater than 100 µM.

`CC(C)[C@@]12C[C@@H](OC(=O)COC(=O)c3ccccc3)[C@@](C)(O1)[C@@H]1CC[C@@H](C)[C@H]1[C@@H]2OC(=O)/C=C/c1ccccc1`: the GI50 in assay [1] was greater than 100 µM; in assay [2], 0.134 µM; in [3], greater than 100 µM; in [4] it was greater than 100 µM; in assay [5], 0.304 µM; in assay [6], 18.7 µM. In addition, the results for the GI50 in [7], in [8] and in assay [10] were 0.0812 µM, greater than 100 µM and greater than 100 µM, respectively. The TGI in assay [1], in [2], in assay [3], in assay [4], in assay [5] and in assay [6] was greater than 100 µM in each case. The TGI in assay [7] is 2.87 µM; in assay [8] it was greater than 100 µM; in assay [9], greater than 100 µM; in assay [10] it was greater than 100 µM.

As for `Cn1c2c(c3ccccc31)CCN1C[C@@H]3CCCC[C@H]3C[C@@H]21`, the GI50 is 2.87 µM in assay [1]; 2.84 µM in assay [2]; 2.36 µM in [3]; 3.43 µM in assay [4]; 3.04 µM in [5]; 2.75 µM in [6]. In addition, the GI50 in assay [7] is 2.92 µM; in [8], 2.61 µM; in assay [9] it was 3.22 µM; in assay [10], 5.55 µM. The TGI in [1] was greater than 30 µM; in [2] it was greater than 30.2 µM; in assay [3], 5.8 µM; in [4] it was greater than 100 µM; in assay [5], 9.19 µM; in assay [6], greater than 26.1 µM. Moreover, the TGI in assay [7] is greater than 29.5 µM; in assay [8] it was 8.06 µM; in [9] it was greater than 40.2 µM; in [10], greater than 100 µM.

Take `COc1ccc(-c2cc(=O)c3c(OC)c4ccoc4c(/C=C/C=O)c3o2)cc1`: the GI50 in assay [1] is 4.14 µM; in assay [2], 2.83 µM; in [3], 4.53 µM; in assay [4] it was 2.3 µM; in assay [5], 2.14 µM; in [6], 2.93 µM. In addition, the GI50 in [7] was 5.03 µM; in [8] it was 18.1 µM; in assay [9], 4.38 µM; in [10], 1.84 µM. For the same compound, the TGI came to 19.6 µM in assay [1]; 27.3 µM in assay [2]; 18.9 µM in assay [3]; 10.4 µM in assay [4]; 7.15 µM in [5]; 8.89 µM in assay [6]. Also, the TGI in [7] was greater than 100 µM; in assay [8], greater than 100 µM; in assay [9], 87.2 µM; in assay [10] it was 5.97 µM.

Consider `C[n+]1cccc(NC(=O)c2ccc3ccc4ccc(C(=O)Nc5ccc[n+](C)c5)nc4c3n2)c1`, for which the GI50 in [1] is 3.33 µM; in assay [2], 9.02 µM; in [3], 0.376 µM; in [4], 2.91 µM; in assay [5] it was 24 µM; in assay [6], 0.121 µM. Also, the GI50 was 4.93 µM in assay [7], 2.38 µM in [8], 3.82 µM in [9] and 21.3 µM in assay [10]. Further, the TGI in assay [1] was 15.6 µM; in assay [2] it was greater than 100 µM; in assay [3] it was 15.6 µM; in assay [4], greater than 100 µM; in assay [5], greater than 100 µM; in assay [6], 0.693 µM. Besides, the TGI in [7] was greater than 100 µM; in assay [8], greater than 100 µM; in [9] it was 42.1 µM; in assay [10], greater than 100 µM.

As to `CC(=O)OC1C(O)C(C)OC(OC2C(OC(=O)C3CCC4C(C3)OC3(CC(OC(=O)/C=C/c5ccccc5)C(C)CO3)C43CO3)OC(C)C(O)C2OC(C)=O)C1O` (centres undefined), the TGI turned out to be 0.0285 µM in assay [1]; 0.198 µM in [2]; 0.0714 µM in assay [3]; 0.184 µM in [4]; 0.0147 µM in [5]; 0.0522 µM in assay [6]. The TGI in assay [7] was 1.21 µM; in assay [8], 0.0473 µM; in [9], 0.0499 µM; in [10] it was 0.032 µM.

On to `Cc1cc(O)ccc1C1(c2ccc(O)cc2C)OC(=O)c2ccccc21`, for which the GI50 was 17.4 µM in assay [1]; 23.3 µM in assay [2]; 18 µM in [3]; 16.9 µM in assay [4]; 17.1 µM in assay [5]; 19.1 µM in assay [6]. Further, the GI50 in assay [7] was 16 µM; in assay [8] it was 19.9 µM; in assay [9], 19 µM; in assay [10] it was 23.8 µM. The TGI worked out at 33.5 µM in assay [1]; 46.5 µM in assay [2]; 31.9 µM in assay [3]; 35.8 µM in assay [4]; 36.4 µM in assay [5]; 41 µM in assay [6]. Besides, the TGI was 30.1 µM in assay [7], 35.5 µM in [8], 43.9 µM in [9] and 58.9 µM in assay [10].

Take `CC(=O)Oc1ccc(C2OC(c3ccc4ccccc4c3OC(C)=O)=NN2C(C)=O)c(OC(C)=O)c1` (centres undefined): the GI50 in assay [1] is 0.342 µM; in [2], 0.363 µM; in assay [3] it was 0.476 µM; in assay [4], 0.455 µM; in assay [5], 0.841 µM; in assay [6], 0.515 µM. Moreover, the GI50 in assay [7] is 0.24 µM; in [8], 1.62 µM; in assay [9], 0.31 µM; in assay [10] it was 0.454 µM. In addition, the TGI in [1] was 12.3 µM; in [2], greater than 100 µM; in assay [3] it was greater than 100 µM; in assay [4] it was greater than 43.3 µM; in [5], 76.3 µM; in [6], greater than 38.9 µM. Besides, the TGI in assay [7] is 5.44 µM; in [8], greater than 52.8 µM; in assay [9], greater than 46 µM; in [10], greater than 100 µM.
